#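 Tested at 5 concentrations; 48 h exposure; 96-well plates; endpoints linearly interpolated, else capped at highest concentration. TGI marks complete inhibition of growth.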
# Key:
# Experiment in all cases: inhibition of tumour cell growth, NCI panel, 48 h
# [1] = test system: 786-0 renal
# [2] = test system: A498 renal
# [3] = test system: A549 NSCLC
# [4] = test system: ACHN renal
# [5] = test system: CCRF-CEM leukemia
# [6] = test system: COLO 205 colon
# [7] = test system: DLD-1 colon
# [8] = test system: DMS 114 small cell lung
# [9] = test system: EKVX NSCLC
# [10] = test system: HCC-2998 colon
# [11] = test system: HCT-116 colon
# [12] = test system: HCT-15 colon
# [13] = test system: HL-60(TB) leukemia
# [14] = test system: HOP-18 NSCLC
# [15] = test system: HOP-62 NSCLC
# [16] = test system: HOP-92 NSCLC
# [17] = test system: HT29 colon
# [18] = test system: IGROV1 ovarian
# [19] = test system: K-562 leukemia
# [20] = test system: KM12 colon
# [21] = test system: KM20L2 colon
# [22] = test system: LOX IMVI melanoma
# [23] = test system: LXFL 529 NSCLC
# [24] = test system: M14 melanoma
# [25] = test system: M19-MEL melanoma
# [26] = test system: MALME-3M melanoma
# [27] = test system: MOLT-4 leukemia
# [28] = test system: NCI-H226 lung
# [29] = test system: NCI-H23 lung
# [30] = test system: NCI-H460 lung
# [31] = test system: NCI-H522 lung
# [32] = test system: OVCAR-3 ovarian
# [33] = test system: OVCAR-5 ovarian
# [34] = test system: OVCAR-8 ovarian
# [35] = test system: RPMI-8226 leukemia
# [36] = test system: RXF 393 renal
# [37] = test system: SF-268 CNS
# [38] = test system: SF-295 CNS
# [39] = test system: SF-539 CNS
# [40] = test system: SK-MEL-2 melanoma
# [41] = test system: SK-MEL-28 melanoma
# [42] = test system: SK-MEL-5 melanoma
# [43] = test system: SK-OV-3 ovarian
# [44] = test system: SN12C renal
# [45] = test system: SNB-19 CNS
# [46] = test system: SNB-75 CNS
# [47] = test system: SR leukemia
# [48] = test system: SW-620 colon
# [49] = test system: TK-10 renal
# [50] = test system: U251 CNS
# [51] = test system: UACC-257 melanoma
# [52] = test system: UACC-62 melanoma
# [53] = test system: UO-31 renal
# [54] = test system: XF 498 CNS
# [55] = test system: BT-549 breast
# [56] = test system: CAKI-1 renal
# [57] = test system: DU-145 prostate
# [58] = test system: HS 578T breast
# [59] = test system: MCF7 breast
# [60] = test system: MDA-MB-231 breast
# [61] = test system: MDA-MB-435
# [62] = test system: MDA-N
# [63] = test system: NCI/ADR-RES ovarian
# [64] = test system: OVCAR-4 ovarian
# [65] = test system: PC-3 prostate
# [66] = test system: T-47D breast
# [67] = test system: DMS 273 small cell lung
structure (smiles),measurement,setting,value
Clc1ccc(C2SCc3nc4ccccc4n32)c(Cl)c1 (stereo unspecified),TGI,[1],31.9 µM
same,TGI,[2],28.4 µM
same,TGI,[3],28.8 µM
same,TGI,[4],28.7 µM
same,TGI,[5],40.8 µM
same,TGI,[6],31.5 µM
same,TGI,[7],30.3 µM
same,TGI,[8],22.1 µM
same,TGI,[9],24.9 µM
same,TGI,[10],28.8 µM
same,TGI,[11],27.6 µM
same,TGI,[12],37.5 µM
same,TGI,[13],28.3 µM
same,TGI,[14],34.4 µM
same,TGI,[15],27.5 µM
same,TGI,[16],11 µM
same,TGI,[17],30.4 µM
same,TGI,[18],31.5 µM
same,TGI,[19],39.6 µM
same,TGI,[20],29.4 µM
same,TGI,[21],36.3 µM
same,TGI,[22],29.4 µM
same,TGI,[23],24.5 µM
same,TGI,[24],28 µM
same,TGI,[25],28.9 µM
same,TGI,[26],32.5 µM
same,TGI,[27],34.6 µM
same,TGI,[28],30.4 µM
same,TGI,[29],25.1 µM
same,TGI,[30],34.7 µM
same,TGI,[31],29.9 µM
same,TGI,[32],27.3 µM
same,TGI,[33],30.3 µM
same,TGI,[34],32.1 µM
same,TGI,[35],41.1 µM
same,TGI,[36],29.6 µM
same,TGI,[37],31.1 µM
same,TGI,[38],21.1 µM
same,TGI,[39],31.4 µM
same,TGI,[40],33.8 µM
same,TGI,[41],31.6 µM
same,TGI,[42],20.4 µM
same,TGI,[43],42.1 µM
same,TGI,[44],28.1 µM
same,TGI,[45],33 µM
same,TGI,[46],34.8 µM
same,TGI,[47],39.1 µM
same,TGI,[48],22 µM
same,TGI,[49],28.4 µM
same,TGI,[50],32 µM
same,TGI,[51],22.2 µM
same,TGI,[52],32 µM
same,TGI,[53],24.9 µM
same,TGI,[54],33.6 µM
OC1(c2cccs2)c2cccc(Cl)c2C(O)(c2cccs2)c2c(Cl)cccc21 (stereo unspecified),TGI,[1],> 100 µM
same,TGI,[2],> 100 µM
same,TGI,[3],> 100 µM
same,TGI,[4],> 100 µM
same,TGI,[55],> 100 µM
same,TGI,[56],> 100 µM
same,TGI,[5],> 100 µM
same,TGI,[6],> 100 µM
same,TGI,[57],> 100 µM
same,TGI,[9],> 100 µM
same,TGI,[10],> 100 µM
same,TGI,[11],> 100 µM
same,TGI,[12],> 100 µM
same,TGI,[13],> 100 µM
same,TGI,[15],> 100 µM
same,TGI,[16],> 100 µM
same,TGI,[58],33.4 µM
same,TGI,[17],> 100 µM
same,TGI,[18],> 100 µM
same,TGI,[19],> 100 µM
same,TGI,[20],> 100 µM
same,TGI,[22],> 100 µM
same,TGI,[24],> 100 µM
same,TGI,[26],> 100 µM
same,TGI,[59],> 100 µM
same,TGI,[60],> 100 µM
same,TGI,[61],> 100 µM
same,TGI,[62],> 100 µM
same,TGI,[27],> 100 µM
same,TGI,[28],> 100 µM
same,TGI,[29],> 100 µM
same,TGI,[30],> 100 µM
same,TGI,[31],> 100 µM
same,TGI,[63],> 100 µM
same,TGI,[32],> 100 µM
same,TGI,[64],> 100 µM
same,TGI,[33],> 100 µM
same,TGI,[34],> 100 µM
same,TGI,[65],> 100 µM
same,TGI,[35],> 100 µM
same,TGI,[36],> 100 µM
same,TGI,[37],75 µM
same,TGI,[38],> 100 µM
same,TGI,[39],> 100 µM
same,TGI,[40],> 100 µM
same,TGI,[41],> 100 µM
same,TGI,[42],> 100 µM
same,TGI,[43],> 100 µM
same,TGI,[44],> 100 µM
same,TGI,[45],> 100 µM
same,TGI,[46],> 100 µM
same,TGI,[47],> 100 µM
same,TGI,[48],> 100 µM
same,TGI,[66],> 100 µM
same,TGI,[49],> 100 µM
same,TGI,[50],> 100 µM
same,TGI,[51],> 100 µM
same,TGI,[52],> 100 µM
same,TGI,[53],> 100 µM
Oc1c(C(Nc2cccc3cccnc23)c2ccccc2)ccc2cccnc12 (stereo unspecified),TGI,[1],> 100 µM
same,TGI,[2],66.6 µM
same,TGI,[3],> 100 µM
same,TGI,[4],> 100 µM
same,TGI,[56],> 100 µM
same,TGI,[5],78.8 µM
same,TGI,[6],> 100 µM
same,TGI,[8],15.6 µM
same,TGI,[67],> 100 µM
same,TGI,[9],> 100 µM
same,TGI,[10],> 100 µM
same,TGI,[11],> 100 µM
same,TGI,[13],7.58 µM
same,TGI,[14],93.2 µM
same,TGI,[15],> 100 µM
same,TGI,[18],39.9 µM
same,TGI,[19],> 100 µM
same,TGI,[20],> 100 µM
same,TGI,[21],> 100 µM
same,TGI,[22],> 100 µM
same,TGI,[23],> 100 µM
same,TGI,[25],> 100 µM
same,TGI,[26],> 100 µM
same,TGI,[27],> 100 µM
same,TGI,[28],9.79 µM
same,TGI,[29],> 100 µM
same,TGI,[30],> 100 µM
same,TGI,[31],73.8 µM
same,TGI,[32],> 100 µM
same,TGI,[64],> 100 µM
same,TGI,[33],> 100 µM
same,TGI,[34],21.3 µM
same,TGI,[35],> 100 µM
same,TGI,[37],> 100 µM
same,TGI,[38],> 100 µM
same,TGI,[39],39 µM
same,TGI,[44],> 100 µM
same,TGI,[45],> 100 µM
same,TGI,[47],10.4 µM
same,TGI,[48],> 100 µM
same,TGI,[51],35.9 µM
same,TGI,[52],> 100 µM
same,TGI,[53],> 100 µM

# Reference: PubChem BioAssay (NCI)
